Experimental data reported in US12544451B2, “Intracellular delivery compositions” (BIOND BIOLOGICS LTD., priority 2021, dated 2026).

Experiments:
A375 cells [1] = test: Internalization of PEI-modified IgG (4.5 PEIs) in the presence of endocytosis inhibitors; type: cell-based; settings: overnight, PEI-modified mouse IgG (4.5 PEIs)
Description: Cationized moieties are thought to internalize using a natural endocytosis mechanism. The two relevant endocytosis mechanisms are caveolin- and clathrin-mediated endocytosis. The exact mechanism of internalization was elucidated by performing the internalization of PEI-modified IgG in the presence of known specific endocytosis inhibitors. A375 cells were incubated overnight with PEI-modified mouse IgG (4.5 PEIs) in the presence of Clathrin inhibitors (Amantadine or Chlorpromazine) or a Caveolin inhibitor (Genistein). […] This corroborates that Caveolin-mediated endocytosis is exploited by the PEI-modified payloads for internalization as inhibition of Clathrin-mediated endocytosis caused a compensatory increase in Caveolin-mediated endocytosis in the cells.

A375 cells [2] = test: Intracellular BRAF inhibition: Annexin V apoptosis assay in A375 cells (IncuCyte, CellTiter-Glo normalisation); type: cell-based; settings: 1 μM or 3 μM agent, BRAF inhibitor at 10 μM
Description: FIGS. 42A-42D. A375 cells were seeded in 96 plate wells for 24 h to allow cells adherence (1500 cells/well). To each well a sample of the tested agent was added at the desired concentration (42A-42B) 1 μM; (42C-42D) […], except BRAF inhibitor, PF-04880594 that was added at 10 μM. (42A, 42C) Red area obtained from the Annexin V red reagent, a commonly used fluorescent dye identifying apoptotic cells, monitored in IncuCyte®. (42B, 42D) Red area normalized to the value obtained by CellTiter-Glo corresponding to intact cells.
Random modification was achieved by reaction of 1C5-Hel20-LC with PEI1800 in the presence of EDC, to give 1C5-Hel20-LC-r-C(O)—NH-PEI1800 (S8). The different constructs of payload conjugated directly to PEI were evaluated for their ability to penetrate A375 cells and induce apoptosis following BRAF inhibition. […]
1C5-Hel20-LC-HSA-PEI (S5C)×n conjugates were prepared by reduction of 1C5-Hel20-LC and activation with 2,2′-Dithiobis(5-nitropyridine) followed by conjugation to HSA-PEI×n. Intracellular BRAF inhibition by the different constructs was evaluated by a functional assay in A375 cells. The different conjugates were incubated with A375 cells in the presence of Annexin V red reagent, for 6 days, while monitoring fluorescence in IncuCyte® to identify apoptotic cells (FIG. 42A, C). […]

[3] = Zeta potential measurement (Zeta Sizer Ultra); type: physicochemical; settings: alternative carriers and HSA before and after PEI modification; STD in separate column
Description: Zeta potential measurements were preformed using Zeta Sizer Ultra (Malvern Instruments). Samples' buffers were exchanged to 1 mM NaCl at 1 mg/mL protein concentration. 20 μL from each sample was loaded in zeta cells (DTS1070), five repeats for each sample were measured and the mean zeta potential in mV was obtained for each repeat. The average for the five measurements is reported with the standard deviation. The measurements were performed under the following conditions: temperature 25° C.; run numbers for each repeat 10-40; equilibration time: 60 seconds, without pause after sub runs; 60 seconds pause between repeats; voltage was selected automatic and monomodal analysis method was used in the data processing.
Zeta potential measurements were preformed using Zeta Sizer Ultra (Malvern Instruments), samples buffer was exchanged to 1 mM NaCl at 1 mg/mL protein concentration. 20 μL from each sample were loaded in zeta cells (DTS1070), five repeats for each sample were measured and the mean zeta potential in mV was obtained.

Compound | effect on internalization of PEI-modified IgG (A375 cells [1]) | further results
O=c1c(-c2ccc(O)cc2)coc2cc(O)cc(O)c12 [Genistein] | inhibited the internalization of PEI-modified IgG | –
N#CCCNc1nccc(-c2cn(CC(F)F)nc2-c2cnc3[nH]ccc3c2)n1 [PF-04880594, reference compound] | – | apoptosis (Annexin V red signal) (A375 cells [2]): highly potent cell killer
CN(C)CCCN1c2ccccc2Sc2ccc(Cl)cc21 [Chlorpromazine] | resulted in increased internalization | –
Fibrinogen | – | Zeta potential (mV) [3]: −1.4 mV
